Test results as given in EP1118612A1, “Piperazine derivatives possesing nootropic activity” (Universita Degli Studi di Firenze, priority 2000, dated 2001).

System: mice
Experiment: Passive-Avoidance test (modified step-through, fall into cold water bath), amnesia induced by scopolamine, baclofen, mecamylamine or clonidine
Format: in vivo, mouse
Conditions: for 2nd Day (latency time for entering the dark compartment, retention test after 24 h): max latency 120 s
Protocol: A slightly modified step-through method described by Jarvik and [Psycol. Rep. […] The apparatus consists of a two-compartment acrylic box with a lighted compartment connected to the darkened one by a guillotine door. In the original method, mice received a punishing electrical shock as soon as they entered the dark compartment, while in our modified method, after entry into the dark compartment, mice receive a non-painful punishment consisting of a fall (from 40 cm ) into a cold water bath (10°C) . For this purpose the dark chamber was constructed with a pitfall floor. The latency times for entering the dark compartment were measured in the training test (first day) and after 24 h in the retention test (second day). […] All investigated drugs were injected 20 min before the training session, while amnesic drugs were injected immediately after termination of the training session. […] The memory degree of received punishment (fall into cold water) was expressed as the increase in seconds between training and retention latencies (see Table 5).

[1] = 0.001 mg kg^-1 injected 20 min before training, + Scopolamine 1.5 mg kg^-1 i.p. after training
[2] = 0.1 mg kg^-1, + Scopolamine 1.5 mg kg^-1 i.p.
[3] = 0.1 mg kg^-1 injected 20 min before training, + Scopolamine 1.5 mg kg^-1 i.p. after training
[4] = 1.0 mg kg^-1 injected 20 min before training, + Baclofen 2 mg kg^-1 i.p. after training
[5] = 1.0 mg kg^-1 injected 20 min before training, + Clonidine 0.125 mg kg^-1 i.p. after training
[6] = 10 mg kg^-1 injected 20 min before training, + Scopolamine 1.5 mg kg^-1 i.p. after training
[7] = 20 mg kg^-1 injected 20 min before training, + Mecamilamine 20 mg kg^-1 i.p. after training
[8] = 0.01 mg kg^-1, + Scopolamine 1.5 mg kg^-1 i.p.
[9] = 0.01 mg kg^-1 injected 20 min before training, + Scopolamine 1.5 mg kg^-1 i.p. after training
[10] = 0.1 mg kg^-1 injected 20 min before training, + Baclofen 2 mg kg^-1 i.p. after training
[11] = 0.1 mg kg^-1 injected 20 min before training, + Clonidine 0.125 mg kg^-1 i.p. after training
[12] = 1 mg kg^-1 injected 20 min before training, + Mecamilamine 20 mg kg^-1 i.p. after training
[13] = 30 mg kg^-1 injected 20 min before training, + Baclofen 2 mg kg^-1 i.p. after training
[14] = 30 mg kg^-1 injected 20 min before training, + Scopolamine 1.5 mg kg^-1 i.p. after training
[15] = 0.01 mg kg^-1 injected 20 min before training, + Baclofen 2 mg kg^-1 i.p. after training
[16] = 10 mg kg^-1 injected 20 min before training, + Mecamilamine 20 mg kg^-1 i.p. after training

O=C1CCC2CN(S(=O)(=O)c3ccc(F)cc3)CCN12 (racemic) [Compound 2, 4-(4-fluorobenzensolfonyl)-1,4-diazabicyclo[4.3.0]nonan-9-one]
Δ (increase in seconds between training and retention latencies) (0.001 mg kg^-1, + Scopolamine 1.5 mg kg^-1 i.p.): 93.8 s
1st Day (latency time for entering the dark compartment, training test) [1]: 19.7 ± 5.8 s
2nd Day (latency time for entering the dark compartment, retention test after 24 h) [1]: 104.4 ± 10.6 s

C[C@H]1C[C@@H]2CN(C(=O)c3ccc(F)cc3)CCN2C1=O (racemic) [Compound 3a, Exo (±) 8-methyl-4-(4-fluorobenzoyl)-1,4-diazabicyclo[4.3.0]nonan-9-one]
Δ (increase in seconds between training and retention latencies) [2]: 85.6 s
1st Day (latency time for entering the dark compartment, training test) [3]: 21.8 ± 4.8 s
2nd Day (latency time for entering the dark compartment, retention test after 24 h) [3]: 107.4 ± 10.7 s

C[C@@H]1C[C@@H]2CN(C(=O)c3ccc(F)cc3)CCN2C1=O (racemic) [Compound 3b, Endo (±) 8-methyl-4-(4-fluorobenzoyl)-1,4-diazabicyclo[4.3.0]nonan-9-one]
Δ (increase in seconds between training and retention latencies) [2]: 80.0 s
1st Day (latency time for entering the dark compartment, training test) [3]: 12.5 ± 5.9 s
2nd Day (latency time for entering the dark compartment, retention test after 24 h) [3]: 104.0 ± 8.6 s

O=C(c1ccc(F)cc1)N1CCN2C(=O)CCC2C1 (stereo not shown) [Compound 1, 4-(4-fluorobenzoyl)-1,4-diazabicyclo[4.3.0]nonan-9-one]
Δ (increase in seconds between training and retention latencies) [2]: 82.2 s
1st Day (latency time for entering the dark compartment, training test) [3]: 18.1 ± 3.9 s
2nd Day (latency time for entering the dark compartment, retention test after 24 h) [3]: 100.3 ± 10.4 s

C[C@H]1C[C@@H]2CN(S(=O)(=O)c3ccc(F)cc3)CCN2C1=O [Compound 4a, Exo 8-methyl-4-(4-fluorobenzensolfonyl)-1,4-diazabicyclo[4.3.0]nonan-9-one]
Δ (increase in seconds between training and retention latencies) [2]: 78.0 s
1st Day (latency time for entering the dark compartment, training test) [3]: 16.9 ± 6.1 s
2nd Day (latency time for entering the dark compartment, retention test after 24 h) [3]: 94.9 ± 11.2 s

C[C@@H]1C[C@@H]2CN(S(=O)(=O)c3ccc(F)cc3)CCN2C1=O [Compound 4b, Endo 8-methyl-4-(4-fluorobenzensolfonyl)-1,4-diazabicyclo[4.3.0]nonan-9-one]
Δ (increase in seconds between training and retention latencies) [2]: 96.5 s
1st Day (latency time for entering the dark compartment, training test) [3]: 21.9 ± 4.7 s
2nd Day (latency time for entering the dark compartment, retention test after 24 h) [3]: 118.4 ± 10.2 s

CC(=O)N1CCN(C(=O)c2ccc(F)cc2)CC1 [Compound 5, 4-Acetyl-1-(4-fluorobenzoyl)piperazine]
Δ (increase in seconds between training and retention latencies) (1.0 mg kg^-1, + Baclofen 2 mg kg^-1 i.p.): 93.2 s
Δ (increase in seconds between training and retention latencies) (1.0 mg kg^-1, + Clonidine 0.125 mg kg^-1 i.p.): 88.1 s
1st Day (latency time for entering the dark compartment, training test) [4]: 11.4 ± 5.2 s
2nd Day (latency time for entering the dark compartment, retention test after 24 h) [4]: 104.6 ± 10.3 s
1st Day (latency time for entering the dark compartment, training test) [5]: 8.0 ± 4.1 s
2nd Day (latency time for entering the dark compartment, retention test after 24 h) [5]: 96.1 ± 10.7 s
Δ (increase in seconds between training and retention latencies) (10 mg kg^-1, + Scopolamine 1.5 mg kg^-1 i.p.): 72.6 s
1st Day (latency time for entering the dark compartment, training test) [6]: 17.5 ± 6.1 s
2nd Day (latency time for entering the dark compartment, retention test after 24 h) [6]: 91.1 ± 9.5 s
Δ (increase in seconds between training and retention latencies) (20 mg kg^-1, + Mecamilamine 20 mg kg^-1 i.p.): 91.7 s
1st Day (latency time for entering the dark compartment, training test) [7]: 17.0 ± 2.7 s
2nd Day (latency time for entering the dark compartment, retention test after 24 h) [7]: 108.7 ± 3.5 s

CC(=O)N1CCN(S(=O)(=O)c2ccc(F)cc2)CC1 [Compound 6, 4-Acetyl-1-(4-fluorobenzensolfonyl)piperazine]
Δ (increase in seconds between training and retention latencies) [8]: 79.2 s
1st Day (latency time for entering the dark compartment, training test) [9]: 19.8 ± 4.1 s
2nd Day (latency time for entering the dark compartment, retention test after 24 h) [9]: 99.0 ± 18.3 s
Δ (increase in seconds between training and retention latencies) (0.1 mg kg^-1, + Baclofen 2 mg kg^-1 i.p.): 80.4 s
Δ (increase in seconds between training and retention latencies) (0.1 mg kg^-1, + Clonidine 0.125 mg kg^-1 i.p.): 77.4 s
1st Day (latency time for entering the dark compartment, training test) [10]: 11.7 ± 4.1 s
2nd Day (latency time for entering the dark compartment, retention test after 24 h) [10]: 92.1 ± 7.9 s
1st Day (latency time for entering the dark compartment, training test) [11]: 14.7 ± 3.7 s
2nd Day (latency time for entering the dark compartment, retention test after 24 h) [11]: 92.4 ± 8.1 s
Δ (increase in seconds between training and retention latencies) (1 mg kg^-1, + Mecamilamine 20 mg kg^-1 i.p.): 91.6 s
1st Day (latency time for entering the dark compartment, training test) [12]: 18.1 ± 3.8 s
2nd Day (latency time for entering the dark compartment, retention test after 24 h) [12]: 109.7 ± 13.6 s

CCC(=O)N1CCN(C(=O)c2ccc(F)cc2)CC1 [Compound 7, 4-Propionyl-1-(4-fluorobenzoyl)piperazine]
Δ (increase in seconds between training and retention latencies) (30 mg kg^-1, + Baclofen 2 mg kg^-1 i.p.): 86.8 s
Δ (increase in seconds between training and retention latencies) (30 mg kg^-1, + Scopolamine 1.5 mg kg^-1 i.p.): 80.5 s
1st Day (latency time for entering the dark compartment, training test) [13]: 20.6 ± 4.9 s
2nd Day (latency time for entering the dark compartment, retention test after 24 h) [13]: 107.1 ± 11.4 s
1st Day (latency time for entering the dark compartment, training test) [14]: 11.9 ± 5.6 s
2nd Day (latency time for entering the dark compartment, retention test after 24 h) [14]: 92.4 ± 10.1 s

CCC(=O)N1CCN(S(=O)(=O)c2ccc(F)cc2)CC1 [Compound 8, 4-Propionyl-1-(4-fluorobenzensolfonyl)piperazine]
Δ (increase in seconds between training and retention latencies) (0.01 mg kg^-1, + Baclofen 2 mg kg^-1 i.p.): 86.8 s
Δ (increase in seconds between training and retention latencies) [8]: 67.9 s
1st Day (latency time for entering the dark compartment, training test) [15]: 16.3 ± 3.3 s
2nd Day (latency time for entering the dark compartment, retention test after 24 h) [15]: 103.3 ± 13.9 s
1st Day (latency time for entering the dark compartment, training test) [9]: 15.9 ± 3.2 s
2nd Day (latency time for entering the dark compartment, retention test after 24 h) [9]: 83.8 ± 9.2 s
Δ (increase in seconds between training and retention latencies) (10 mg kg^-1, + Mecamilamine 20 mg kg^-1 i.p.): 90.2 s
1st Day (latency time for entering the dark compartment, training test) [16]: 16.5 ± 2.7 s
2nd Day (latency time for entering the dark compartment, retention test after 24 h) [16]: 106.7 ± 10.2 s

NC(=O)CN1CCCC1=O [Piracetam, piracetam, reference compound]
1st Day (latency time for entering the dark compartment, training test) [13]: 20.9 ± 4.5 s
1st Day (latency time for entering the dark compartment, training test) (30 mg kg^-1 injected 20 min before training, + Clonidine 0.125 mg kg^-1 i.p. after training): 11.6 ± 3.7 s
1st Day (latency time for entering the dark compartment, training test) (30 mg kg^-1 injected 20 min before training, + Mecamilamine 20 mg kg^-1 i.p. after training): 16.7 ± 4.8 s
1st Day (latency time for entering the dark compartment, training test) [14]: 17.6 ± 3.6 s
